In brackets after ≈: the same amount, converted by molar mass. Where two headings read alike, the source gives them in different places.
What was measured:
[1] = test system: Methicillin Sensitive S. aureus; details: cited from earlier work
E. coli AcrAB– = details: ref 10 (Z2, Z3), 11 (TXY436), 12 (I, II); cited from earlier work
MDRSA 12.1 = test: Broth microdilution MIC, MDRSA 12.1; type: cell-based, Staphylococcus aureus
Procedure: (§1) Antimicrobial activity of 1–8 was evaluated on both Gram-positive (Table 3) and Gram-negative (Table 4) species. As a continuation of our previous studies, considering the Gram-positive S. aureus, we chose a methicillin-sensitive S. aureus (MSSA, ATCC 29213), a methicillin-resistant S. aureus (MRSA, ATCC 43300) and two clinical isolates of S. aureus showing multi-drug resistance (MDRSA).
(§2) Antibacterial activities of compounds were determined by the broth microdilution method against MDRSA 11.7, MDRSA 12.1 and E. coli N43 following the European Committee on Antimicrobial Susceptibility Testing (EUCAST) recommendations and Clinical and Laboratory Standards Institute (CLSI) guidelines. Strains MDRSA ST-11.7 and ST-12.1 were obtained through the interlaboratory control organized by the EU Reference Laboratory—Antimicrobial Resistance. Only data on their resistance to antibiotics are known, but other data are not available.
(§3) Bacterial suspension of specific bacterial strain equivalent to 0.5 McFarland turbidity standard was diluted with cation-adjusted Mueller Hinton broth with TES (Thermo Fisher Scientific), to obtain a final inoculum of 10^5 CFU/mL. Compounds dissolved in DMSO and inoculum were mixed together and incubated for 20 h at 37 °C. After incubation, the minimal inhibitory concentration (MIC) values were determined by visual inspection as the lowest dilution of compounds showing no turbidity. Tetracycline was used as a positive control on every assay plate.

E. coli N43 = test: Broth microdilution MIC, efflux-defective E. coli N43; type: cell-based, Escherichia coli
Procedure: (§4) We thus tested 1–8 and III initially on the reference sensitive E. coli ATCC 25922 and on the extended-spectrum of beta-lactamase-positive (ESBL) E. coli, as Gram-negative bacteria. Moreover, in order to evaluate the susceptibility of this series of compounds to the efflux pump AcrAB, we employed also the above-mentioned E. coli N43, which is the knockout of the AcrAB cell membrane pump.
as §2, §3

MSSA ATCC 29213 = test: MIC/MBC determination in LB broth, MSSA; type: cell-based, Staphylococcus aureus; details: MSSA ATCC 29213
Procedure: (§5) Normal human lung fibroblasts (MRC-5) were grown in Dulbecco’s modified Eagle’s medium (DMEM) supplemented with 10% calf serum, 100 U/mL penicillin and […] streptomycin in an incubator at 5% CO2 atmosphere and 37 °C. The Gram-positive Staphylococcus aureus (methicillin-sensitive, MSSA ATCC 29213, and methicillin-resistant, MRSA ATCC 43300) and the Gram-negative Escherichia coli (ESBL, extended-spectrum beta-lactamase-positive) bacterial cells were grown in Luria-Bertani broth (LB) at 37 °C under constant shaking at 300 rpm.
(§6) The antibacterial activity was tested on both a methicillin-sensitive and a methicillin-resistant S. aureus strain, and an ESBL E. coli clinical isolate. All the compounds were dissolved at the final concentration of 20 mg/mL in dimethyl sulfoxide (DMSO) and serially diluted in LB. Fresh cell cultures were used at 10^5 cells/mL in a final volume of 2 mL. Each bacterial sample was grown with different compound concentrations that ranged from 100 to 0.1 μg/mL. […] To determine the MBC, the bacteria were then washed three times with LB, centrifuged at 900× g for 10 min at 4 °C, and the pellet resuspended in fresh LB. After overnight incubation at 37 °C, the absence of growth was confirmed by OD measurement. The presence of antibacterial activity, at any concentration tested, was established for values of absorbance < 0.1 OD600. All tests were performed in quadruplicate and for each series of experiments, both positive (no compounds) and negative (no bacteria) controls were included.

E. coli ATCC 25922 = test: MIC on reference sensitive E. coli; type: cell-based, Escherichia coli
From the text: as §4

ESBL E. coli = test: MIC in LB broth, ESBL E. coli clinical isolate; type: cell-based, Escherichia coli
Procedure: as §4, §5, §6

MRSA ATCC 43300 = test: MIC/MBC determination in LB broth, MRSA; type: cell-based, Staphylococcus aureus
Procedure: as §5, §6

MDRSA 11.7 = test: Broth microdilution MIC, MDRSA 11.7; type: cell-based, Staphylococcus aureus
Procedure: as §1, §2, §3

S. aureus ATCC 43300 = test: Transmission electron microscopy of septum formation; type: cell-based, Staphylococcus aureus; details: MRSA cultured overnight; 1 at 1 μg/mL, DFNB at 0.25 μg/mL
From the text: After having assessed the antimicrobial profile of this class of derivatives, we chose 1 to be further analyzed by transmission electron microscopy (TEM), in order to evaluate any morphological changes in septum formation, as done before as a simple FtsZ target validation assay. We cultured S. aureus ATCC 43300 alone or in the presence of 1 and 2,6-difluorononyloxybenzamide (DFNB) as a reference FtsZ inhibitor (positive control). […] These are the typical effects of the inhibition of FtsZ assembly and consequently of the block of bacterial cell division.
S. aureus ATCC 43300 (10^9 cells/mL) were cultured in the presence of 1 and DFNB (positive control), at the same concentrations used for optical microscopy and, after 16 h incubation at 37 °C, the cells were harvested and processed for transmission electron microscopy, as already described. Untreated S. aureus was used as negative control. After centrifugation at 3100× g for 5 min at room temperature, pelleted bacteria were fixed in 2.5% glutaraldehyde (Polysciences, Warrington, PA) in 0.1 M Na cacodylate buffer, pH 7.4, for 1 h at 4 °C, rinsed twice and post-fixed in Na cacodylate-buffered 1% OsO4 for 1 h at 4 °C. The samples were dehydrated through a series of graded ethanol solutions and propylene oxide and embedded in Poly/Bed 812 resin mixture. […]

MRC-5 cells = test: MTT cytotoxicity assay; type: cell-based, human; details: MRC-5, concentration reducing cell viability by 90%, 24-h incubation
Procedure: The compounds showing the most promising activities vs. MRSA were also assessed for their cytotoxicity on human MRC-5 cells. TD90, the concentration (µg/mL) able to reduce by 90% the viability of these cells, was determined together with the therapeutic index (TI), expressed as the ratio between TD90 and MBC values.
as §5
Compounds showing an antibacterial activity at a concentration lower than 10 μg/mL were serially diluted in DMEM and tested on MRC-5 cells by the MTT cytotoxicity assay (Sigma, St Louis, MO, USA). Cells (10^4 cells/well) were tested in a 96-well plate, in quadruplicate, using serially two-fold-diluted concentrations of the compound in 100 μL DMEM medium. After a 24-h incubation, the compound was removed, and the cells were overlaid with 1 mg/mL MTT in 100 μL serum-free DMEM for 3 h at 37 °C. The MTT solution was then replaced with DMSO for 10 min, and the absorbance was measured at 570 nm. The percentage of cytotoxicity was calculated by the formula [100 − (sample OD/untreated cells OD) × 100]. The compound concentration reducing cell viability by 90% was defined as the TD90 cytotoxic dose. The “therapeutic index” (TI) was also determined and defined as the ratio between TD90 and the MBC values.

[2] = Staphylococcus aureus, read-out: MIC
[3] = Staphylococcus aureus, read-out: MBC
[4] = Escherichia coli, read-out: MIC

Which MIC ([1]; Methicillin Sensitive S. aureus, ref 10 (Z2, Z3), 11 (TXY436), 12 (I, II)) does the source give for `CCN(CC)CCNc1nc(/C=C/c2ccc(Cl)cc2)nc2cc3ccccc3cc12` [Compound Z3] here?
Its MIC is 2.1 µg/mL (≈ 4.87 µM).

What about the MIC (E. coli AcrAB–) of the same compound?
The MIC was 4 µg/mL (≈ 9.28 µM).

Which results are given for `NC(=O)c1c(F)ccc(OCCC2CSc3ccccc3O2)c1F` (stereo not drawn) [Compound 6]?
MIC (MDRSA 12.1; [2]): 4 µg/mL (≈ 11.4 µM); MIC (E. coli N43; Escherichia coli, N43): > 128 µg/mL; MBC/MIC (MSSA ATCC 29213): 2; MBC (MSSA ATCC 29213; [3]): 5 µg/mL (≈ 14.2 µM); MIC (MSSA ATCC 29213; [2]): 2.5 µg/mL (≈ 7.11 µM); MIC (E. coli ATCC 25922; Escherichia coli, ATCC25922): > 100 µg/mL; MIC (ESBL E. coli; [4]): > 100 µg/mL; MBC/MIC (MRSA ATCC 43300): 2; MBC (MRSA ATCC 43300; [3]): 5 µg/mL (≈ 14.2 µM); MIC (MRSA ATCC 43300; [2]): 2.5 µg/mL (≈ 7.11 µM); MIC (MDRSA 11.7; [2]): 8 µg/mL (≈ 22.8 µM)

Which MBC (MSSA ATCC 29213; [3]) does the source give for `NC(=O)c1c(F)ccc(OCC2COc3ccccc3S2(=O)=O)c1F` (stereo not drawn) [Compound 4] here?
Its MBC is over 100 µg/mL.

And the MIC (MSSA ATCC 29213; [2])?
The MIC was over 100 µg/mL.

And the MIC (E. coli ATCC 25922; Escherichia coli, ATCC25922)?
The MIC was over 100 µg/mL.

What about the MIC (ESBL E. coli; [4]) of the same compound?
The MIC was over 100 µg/mL.

And the MBC (MRSA ATCC 43300; [3])?
The MBC was over 100 µg/mL.

And the MIC (MRSA ATCC 43300; [2])?
The MIC was over 100 µg/mL.

What does the source list for “3-(1,4-benzoxathiane-2-yl)-2,6-difluorobenzamide [Compound 1]”?
MIC (MDRSA 12.1): 2 µg/mL; MIC (E. coli N43; E. coli N43 (AcrAB knockout)): 64 µg/mL; MBC (MSSA ATCC 29213): 1 µg/mL; MBC/MIC (MSSA ATCC 29213): 1; MIC (MSSA ATCC 29213): 1 µg/mL; MIC (E. coli ATCC 25922; E. coli ATCC 25922): >100 µg/mL; MIC (ESBL E. coli): >100 µg/mL; MBC (MRSA ATCC 43300): 1 µg/mL; MBC/MIC (MRSA ATCC 43300): 1; MIC (MRSA ATCC 43300): 1 µg/mL; Morphological changes in septum formation (TEM) (S. aureus ATCC 43300): strong alterations in the septum formation and bacterial desegregation; MIC (MDRSA 11.7): 2 µg/mL; TD90 (MRC-5 cells): >800 µg/mL

For “3-(1,4-benzoxathiane-3-yl)-2,6-difluorobenzamide [Compound 3]”, which MIC (MDRSA 12.1) is on record?
Its MIC is 32 µg/mL.

What about the MIC (E. coli N43; E. coli N43 (AcrAB knockout)) of the same compound?
The MIC was 128 µg/mL.

What about the MBC (MSSA ATCC 29213) of the same compound?
The MBC was 20 µg/mL.

What about the MBC/MIC (MSSA ATCC 29213) of the same compound?
Its MBC/MIC is 1.

What about the MIC (MSSA ATCC 29213) of the same compound?
The MIC was 20 µg/mL.

What about the MIC (E. coli ATCC 25922; E. coli ATCC 25922) of the same compound?
Its MIC is over 100 µg/mL.

What about the MIC (ESBL E. coli) of the same compound?
Its MIC is over 100 µg/mL.

And the MBC (MRSA ATCC 43300)?
Its MBC is 20 µg/mL.

What about the MBC/MIC (MRSA ATCC 43300) of the same compound?
Its MBC/MIC is 1.

And the MIC (MRSA ATCC 43300)?
Its MIC is 20 µg/mL.

What about the MIC (MDRSA 11.7) of the same compound?
The MIC was 32 µg/mL.

What about the TD90 (MRC-5 cells) of the same compound?
Its TD90 is 200 µg/mL.

With `NC(=O)c1c(F)ccc(OCC2CCc3ccccc3O2)c1F` (stereo not drawn) [IV] as the compound, how does the “MIC vs. MSSA” value ([1]; chromanes ref 22) read?
The value was 5 µg/mL (≈ 15.7 µM).

What does the source list for `NC(=O)c1c(F)ccc(OCC2CS(=O)(=O)c3ccccc3O2)c1F` (stereo not drawn) [Compound 2]?
MBC (MSSA ATCC 29213; [3]): > 100 µg/mL; MIC (MSSA ATCC 29213; [2]): > 100 µg/mL; MIC (E. coli ATCC 25922; Escherichia coli, ATCC25922): > 100 µg/mL; MIC (ESBL E. coli; [4]): > 100 µg/mL; MBC (MRSA ATCC 43300; [3]): > 100 µg/mL; MIC (MRSA ATCC 43300; [2]): > 100 µg/mL

— PMC7235863, “Benzamide Derivatives Targeting the Cell Division Protein FtsZ: Modifications of the Linker and the Benzodioxane Scaffold and Their Effects on Antimicrobial Activity” (Antibiotics, 2020)
